SMILES strings stand for the structures.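 Tested at 5 concentrations; 48 h exposure; 96-well plates; endpoints linearly interpolated, else capped at highest concentration. GI50 = concentration required for 50% inhibition of growth.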 Activity calls are given as the source filed them. Cut-off read from the data, not from the text of the source: active = GI50 up to about 1.1 µM and inactive = higher.

Consider 8 compounds from ChEMBL document CHEMBL1201862, “PubChem BioAssay data set” (2004).

Common to all, as to assay: NCI tumour cell line growth inhibition, 48 h
Assay [1] relates to MOLT-4.
In assay [2] the test system is SF-539.
For assay [3], the system named is NCI-H23.
The test system of assay [4] is KM12.
The test system of assay [5] is HCT-116.
The subject of assay [6] is SR.
Assay [7] has as its system HCC 2998.
Assay [8] has as its system SNB-19.
Assay [9] concerns SF-268.
Assay [10] deals with UACC-62.
Assay [11] relates to OVCAR-4.
For assay [12], the system named is MDA-N.
The test system of assay [13] is SK-MEL-5.
Assay [14] relates to PC-3.
In assay [15] the test system is CAKI-1.
For assay [16], the system named is NCI-H460.
Assay [17] relates to MDA-MB-231.
Assay [18] concerns SF-295.
For assay [19], the system named is A498.

Consider `Cc1ccc(S(=O)(=O)c2[nH]cc(/C(=C\C3CCCCC3)[N+](=O)[O-])c2C2CCCCC2)cc1`, for which the GI50 was 0.324 µM (active) in assay [1]; 0.462 µM (active) in [2]; 0.542 µM (active) in assay [3]; 1.79 µM (inactive) in assay [4]; 0.216 µM (active) in [5]; 0.281 µM (active) in assay [6]. In addition, the GI50 is 0.682 µM (active) in assay [7]; 1.75 µM (inactive) in assay [8]; 0.414 µM (active) in assay [9]; 0.234 µM (active) in [10]; 0.388 µM (active) in assay [11]; 0.301 µM (active) in [12]. Moreover, the GI50 in assay [13] was 0.318 µM (active); in [14], 0.472 µM (active); in assay [15], 0.22 µM (active); in assay [16] it was 1.22 µM (inactive); in assay [17] it was 0.217 µM (active).
For the compound `O=C1CCCC2C(O)CCC[C@H]12` (stereo not given in full), the GI50 in assay [1], in assay [2], in [3], in assay [4], in assay [5] and in [6] was > 100 µM (inactive) throughout. In addition, the GI50 in assay [18], in assay [7], in assay [8], in assay [9], in assay [10] and in assay [11] was > 100 µM (inactive) in each case. Besides, the GI50 in assay [12], in [13], in assay [14], in [15], in assay [16] and in assay [17] was > 100 µM (inactive) each time.
For `CC1=C2C3=C(C)C(=O)C(C)(C)CC[C@@]3(C)[C@]2(C)CCC(C)(C)C1=O`, the GI50 in assay [1], in assay [2], in assay [3], in assay [19], in assay [4] and in [5] was > 100 µM (inactive) in each case. Also, the GI50 in assay [6], in assay [18], in assay [8], in [9], in [10] and in assay [11] was > 100 µM (inactive) each time. Moreover, the GI50 in assay [12], in assay [13], in assay [14], in [15] and in assay [17] was > 100 µM (inactive) throughout.
As for `CCCCCC/C=C\CCCCCCCCCc1cccc(OC)c1O`, the GI50 in assay [1] was > 100 µM (inactive); in [2], > 100 µM (inactive); in assay [3], 86.9 µM (inactive); in assay [19], 41.2 µM (inactive); in assay [4], 80 µM (inactive); in [5], 44.2 µM (inactive). Moreover, the GI50 in [6] was > 10 µM (inactive); in assay [18] it was > 100 µM (inactive); in assay [8] it was > 100 µM (inactive); in [9], > 100 µM (inactive); in [10] it was > 100 µM (inactive); in [12], 85.9 µM (inactive). In addition, the GI50 is > 100 µM (inactive) in assay [13], 63.8 µM (inactive) in [14], > 100 µM (inactive) in [15] and > 100 µM (inactive) in assay [17].
Consider `O=C(NNC(=O)c1ccc(Cl)cc1NC(=O)C12CC3CC(CC(C3)C1)C2)c1ccc(Cl)cc1`, for which the GI50 in assay [1] is 30.1 µM (inactive); in assay [2], 23.7 µM (inactive); in assay [3], 39.7 µM (inactive); in assay [4] it was 20.3 µM (inactive); in [5], 20.3 µM (inactive); in [6] it was 28.8 µM (inactive). Also, the GI50 in assay [18] is 22.9 µM (inactive); in [7], 17.1 µM (inactive); in assay [8], 19.1 µM (inactive); in assay [9] it was 29.9 µM (inactive); in [10] it was 21.7 µM (inactive); in assay [11], 34.8 µM (inactive). Also, the GI50 in [12] is 22 µM (inactive); in assay [13] it was 18 µM (inactive); in assay [14], 26.8 µM (inactive); in assay [15], 24.4 µM (inactive); in assay [16], 23.2 µM (inactive); in [17], 22 µM (inactive).
In the case of `Cc1nn(C(=O)c2ccncc2)c2c1C(c1ccccc1[N+](=O)[O-])SC(=N)N2` (stereo not given), the GI50 in assay [1], in [2], in [3], in assay [4], in assay [5] and in assay [6] was > 10 µM (inactive) throughout. The GI50 in assay [18], in assay [7], in assay [8], in assay [9], in [10] and in assay [11] was > 10 µM (inactive) each time. Also, the GI50 in assay [12], in assay [13], in assay [14], in assay [15], in [16] and in [17] was > 10 µM (inactive) in each case.
`C[C@@H](c1ccccc1)N1CN(C(=O)OCc2ccccc2)C(C)(C)CC1=O`: the GI50 in assay [1] was > 100 µM (inactive); in assay [2] it was > 100 µM (inactive); in assay [3], > 100 µM (inactive); in assay [4] it was > 100 µM (inactive); in assay [5], > 100 µM (inactive); in assay [6] it was 86.3 µM (inactive). The GI50 in [18], in assay [7], in assay [8], in assay [9], in [10] and in assay [11] was > 100 µM (inactive) each time. Moreover, the GI50 was > 100 µM (inactive) in [12]; 41.7 µM (inactive) in assay [13]; > 100 µM (inactive) in assay [14]; > 100 µM (inactive) in [15]; > 100 µM (inactive) in assay [16]; > 100 µM (inactive) in assay [17].
Consider `C[C@@H]1[C@@H](c2ccccc2)O[B-](c2ccccc2)(c2ccccc2)[N+]1(C)C`, for which the GI50 in assay [1] is > 100 µM (inactive); in [2] it was 55.7 µM (inactive); in assay [3], 90.6 µM (inactive); in assay [19] it was 67.8 µM (inactive); in assay [4], > 100 µM (inactive); in [5], 59.3 µM (inactive). In addition, the GI50 in assay [6] is 53 µM (inactive); in assay [18] it was > 100 µM (inactive); in assay [8] it was > 100 µM (inactive); in assay [9], > 100 µM (inactive); in [10], > 100 µM (inactive); in assay [11], 56.4 µM (inactive). Moreover, the GI50 in assay [12] is 54.1 µM (inactive); in [13] it was 27.5 µM (inactive); in [14], 22.8 µM (inactive); in assay [15] it was 48.3 µM (inactive); in assay [16], > 100 µM (inactive); in [17], > 100 µM (inactive).
